Source: US6982260B1, “Quinazolines and their use for inhibiting cyclin-dependent kinase enzymes” (Warner-Lambert Company, priority 1999, dated 2006)
Like-named read-outs stand apart in the source and are kept apart here.

Columns and labels:
cdk4/D = cdk4/D (Homo sapiens, UniProt P11802); test: Cyclin-Dependent Kinase 4 (cdk4) Assay; assay type: biochemical
Method: As noted above, the compounds of this invention are potent inhibitors of cyclin-dependent kinases, and accordingly, are useful in treating and preventing neurodegenerative disorders, atherosclerosis, and other cell proliferative disorders like cancer. […] A typical assay, for instance, measures inhibitory activity against the cyclin D dependent kinase 4 enzyme (cdk4/D). […] The cdk4 assay was carried out as follows.
Cyclin-Dependent Kinase 4 (cdk4) Assay
Enzyme assays for IC50 determinations (Table 1 above) and kinetic evaluation were performed in 96 well filter plates (Millipore MADVN6550). The total volume was 0.1 mL containing a final concentration of 20 mM TRIS (tris[hydroxymethyl]aminomethane), at pH 7.4, 50 mM NaCl, 1 mM dithiothreitol, 10 mM MgCl2, 25 μM ATP containing 0.25 μCi of [^32P]ATP, 20 ng of cdk4, 1 μg of retinoblastoma, and appropriate dilutions of a compound of the present invention. All components except the ATP were added to the wells, and the plate was placed on a plate mixer for 2 minutes. The reaction was started by adding [^32P]ATP and the plate was incubated at 25° C. for 15 minutes. The reaction was terminated by addition of 0.1 mL of 20% trichloroacetic acid (TCA). The plate was kept at 4° C. for at least 1 hour to allow the substrate to precipitate. The wells were then washed five times with 0.2 mL of 10% TCA and ^32P incorporation was determined with a beta plate counter (Wallac Inc., Gaithersburg, Md.).

cdc2/cyclinB = cdc2/cyclinB (Homo sapiens, UniProt P06493); test: cdc2/cyclinB kinase assay (Table 1, CdkB); assay type: biochemical; conditions: 32P incorporation into retinoblastoma, 25° C., 15 minutes
Method: (§1) All components except the ATP were added to the wells, and the plate was placed on a plate mixer for 2 minutes. The reaction was begun by addition of [^32P]ATP, and the plate was incubated at 25° C. for 15 minutes. The reaction was terminated by addition of 0.1 mL of 20% TCA. The plate was kept at 4° C. for at least 1 hour to allow the substrate to precipitate. The wells were then washed five times with 0.2 mL of 10% TCA and ^32P incorporation determined with a beta plate counter (Wallac Inc., Gaithersburg, Md.).

cdk2/A = cdk2/A (Homo sapiens, UniProt P24941); test: cdk2/A kinase assay; assay type: biochemical; conditions: 32P incorporation into retinoblastoma, 25° C., 15 minutes; read-out: Cdk2A IC50
Method: as §1

cdk2/cyclinE = cdk2/cyclinE (Homo sapiens, UniProt P24941); test: cdk2/cyclinE kinase assay; assay type: biochemical; conditions: 32P incorporation into retinoblastoma, 25° C., 15 minutes; read-out: Cdk2E IC50
Method: as §1

[1] = 25 μM ATP, retinoblastoma substrate, 25° C., 15 minutes, read-out: Cdk4 IC50

Chain of cdc2/cyclinB (P06493 whole entry, species assumed): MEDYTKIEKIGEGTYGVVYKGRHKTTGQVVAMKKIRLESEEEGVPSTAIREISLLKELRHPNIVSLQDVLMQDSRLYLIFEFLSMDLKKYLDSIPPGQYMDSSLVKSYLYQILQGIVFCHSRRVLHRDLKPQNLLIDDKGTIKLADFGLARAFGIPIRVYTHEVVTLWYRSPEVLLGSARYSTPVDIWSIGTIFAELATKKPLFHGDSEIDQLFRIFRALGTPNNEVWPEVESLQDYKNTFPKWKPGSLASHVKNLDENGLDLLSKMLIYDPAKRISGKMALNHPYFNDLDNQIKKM
Chain of cdc2/cyclinB (P14635 whole entry partner, species assumed): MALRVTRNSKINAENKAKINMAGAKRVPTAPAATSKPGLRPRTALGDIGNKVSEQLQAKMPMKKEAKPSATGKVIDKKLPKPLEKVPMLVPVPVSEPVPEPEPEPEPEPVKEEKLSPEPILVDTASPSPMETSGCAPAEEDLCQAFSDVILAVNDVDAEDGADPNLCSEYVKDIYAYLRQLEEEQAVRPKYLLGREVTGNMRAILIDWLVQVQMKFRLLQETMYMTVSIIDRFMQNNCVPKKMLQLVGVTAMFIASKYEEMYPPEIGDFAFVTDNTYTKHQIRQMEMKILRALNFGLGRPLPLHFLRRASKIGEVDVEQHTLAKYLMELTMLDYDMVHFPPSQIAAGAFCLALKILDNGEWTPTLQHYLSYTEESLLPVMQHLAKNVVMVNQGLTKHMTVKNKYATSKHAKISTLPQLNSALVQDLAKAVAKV
Chain of cdk4/D (P11802 whole entry, species assumed): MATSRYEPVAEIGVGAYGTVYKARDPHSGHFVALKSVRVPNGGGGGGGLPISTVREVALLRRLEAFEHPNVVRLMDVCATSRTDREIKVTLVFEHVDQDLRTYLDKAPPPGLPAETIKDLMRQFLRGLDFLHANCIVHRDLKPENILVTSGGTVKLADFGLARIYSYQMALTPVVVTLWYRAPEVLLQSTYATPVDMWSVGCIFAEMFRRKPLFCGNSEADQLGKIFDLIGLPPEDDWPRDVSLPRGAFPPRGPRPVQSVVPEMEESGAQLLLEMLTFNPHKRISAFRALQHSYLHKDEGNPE
Chain of cdk4/D (P24385 whole entry partner, species assumed): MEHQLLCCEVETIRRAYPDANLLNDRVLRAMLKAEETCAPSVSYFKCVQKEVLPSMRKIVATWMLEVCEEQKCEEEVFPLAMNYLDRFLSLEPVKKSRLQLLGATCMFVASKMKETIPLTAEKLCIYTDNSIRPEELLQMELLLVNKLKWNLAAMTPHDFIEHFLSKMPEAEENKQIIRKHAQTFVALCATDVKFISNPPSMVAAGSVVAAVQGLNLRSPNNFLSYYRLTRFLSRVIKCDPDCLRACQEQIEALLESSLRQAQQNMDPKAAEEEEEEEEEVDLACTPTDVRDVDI

Molecule	IC50 (cdk4/D; [1]) [µM]	IC50 (cdc2/cyclinB) [µM]	IC50 (cdk2/A) [µM]	IC50 (cdk2/cyclinE) [µM]	IC50 (cdk4/D) [µM]	melting point
(8-Isopropyl-7-methoxy-quinazolin-2-yl)-(4-piperidin-1-yl-phenyl)-amine [Example 47]	0.075	1.07	0.264	4.1	–	–
COc1ccc2cnc(Nc3ccc(N4CCCCC4)cc3)nc2c1C1CCCC1 [Example 23, (8-Cyclopentyl-7-methoxy-quinazolin-2-yl)-(4-piperidin-1-yl-phenyl)-amine]	–	> 5	0.384	> 5	0.011	212 to 214 °C
COc1ccc2cnc(Nc3ccc(N4CCCC4)cc3)nc2c1C(C)C [Example 22, (8-Isopropyl-7-methoxy-quinazolin-2-yl)-(4-pyrrolidin-1-yl-phenyl)-amine]	–	> 5	1.6	> 5	0.56	188 to 190 °C
COc1ccc2cnc(Nc3ccc(N4CCOCC4)cc3)nc2c1C(C)C [Example 39, (8-Isopropyl-7-methoxy-quinazolin-2-yl)-(4-morpholin-4-yl-phenyl)-amine]	–	1.97	0.665	4.4	0.052	–
COc1ccc2cnc(Nc3ccc(N4CCOCC4)c(F)c3)nc2c1C1CCCC1 [Example 43, (8-Cyclopentyl-7-methoxy-quinazolin-2-yl)-(3-fluoro-4-morpholin-4-yl-phenyl)-amine]	0.07	> 5	0.966	> 5	–	252 to 253 °C
COc1ccc2cnc(Nc3ccc(N4CCC(NC(=O)OC(C)(C)C)C4)cc3)nc2c1C1CCCC1 (centres unmarked) [Example 45, {1-[4-(8-Cyclopentyl-7-methoxy-quinazolin-2-ylamino)-phenyl]-pyrrolidin-3-yl}-carbamic Acid Tert-butyl Ester]	0.275	> 1.7	2.39	6.9	–	157 °C (dec.)
COc1ccc2cnc(Nc3ccc(N4CCN(C(C)=O)CC4)cc3)nc2c1C(C)C [Example 33, 1-{4-[4-(8-Isopropyl-7-methoxy-quinazolin-2-ylamino)-phenyl]-piperazin-1-yl}-ethanone]	–	–	–	0.9	0.025	197 to 198 °C
COc1ccc2cnc(Nc3ccc(N4CCC(N)C4)cc3)nc2c1C(C)C (centres unmarked) [Example 37, [4-(3-Amino-pyrrolidin-1-yl)-phenyl]-(8-isopropyl-7-methoxy-quinazolin-2-yl)-amine]	–	1.3	0.296	2.55	0.011	–
COc1ccc2cnc(Nc3ccc(N4CCCC4)cc3)nc2c1C1CCCC1 [Example 24, (8-Cyclopentyl-7-methoxy-quinazolin-2-yl)-(4-pyrrolidin-1-yl-phenyl)-amine]	–	> 5	–	–	1.75	240 to 242 °C
COc1ccc2cnc(Nc3ccc(N4CCN(C(=O)CN)CC4)cc3)nc2c1C(C)C [Example 35, 2-Amino-1-{4-[4-(8-Isopropyl-7-methoxy-quinazolin-2-ylamino)-phenyl]-piperazin-1-yl}-ethanone]	–	0.8	0.191	1.1	0.01	183 to 185 °C
COc1ccc2cnc(Nc3ccc(F)c(C)c3)nc2c1C1CCCC1 [Example 48, (8-Cyclopentyl-7-methoxy-quinazolin-2-yl)-(4-fluoro-3-methyl-phenyl)-amine]	2.4	1.17	0.574	2.2	–	208 to 209 °C
COc1ccc2cnc(Nc3ccccc3)nc2c1C(C)C [Example 19, (8-Isopropyl-7-methoxy-quinazolin-2-yl)-phenyl-amine]	–	1.04	0.253	1.07	0.125	172 to 173 °C
(8-Isopropyl-7-methoxy-quinazolin-2-yl)-(4′-methoxy-biphenyl-4-yl)-amine [Example 36]	0.225	–	–	> 5	–	–
COc1ccc2cnc(Nc3ccc(N4CCN(C(=O)C(N)CC(C)C)CC4)cc3)nc2c1C1CCCC1 (centres unmarked) [Example 42, 2-Amino-1-{4-[4-(8-cyclopentyl-7-methoxy-quinazolin-2-ylamino)-phenyl]-piperazin-1-yl}-4-methyl-pentan-1-one]	–	0.333	0.103	0.5	–	130 to 132 °C
COc1ccc2cnc(Nc3ccc(N4CCN(C(=O)OC(C)(C)C)CC4)cc3)nc2c1C(C)C [Example 25, 4-[4-(8-Isopropyl-7-methoxy-quinazolin-2-ylamino)-phenyl]-piperazine-1-carboxylic Acid Tert-butyl Ester]	0.063	10.2	1.62	10	–	173 to 175 °C
COc1ccc2cnc(Nc3ccc(N4CCNCC4)c(F)c3)nc2c1C1CCCC1 [Example 50, (8-Cyclopentyl-7-methoxy-quinazolin-2-yl)-(3-fluoro-4-piperazin-1-yl-phenyl)-amine]	–	0.214	0.062	0.3	0.004	228 to 229 °C
COc1ccc2cnc(Nc3ccc(F)c(C)c3)nc2c1C(C)C [Example 46, (4-Fluoro-3-methyl-phenyl)-(8-isopropyl-7-methoxy-quinazolin-2-yl)-amine]	1.5	1.2	0.246	1.2	–	169 to 171 °C
COc1ccc2cnc(Nc3ccc(N4CCCCC4)cc3)nc2c1C(C)C [Example 21, (8-Isopropyl-7-methoxy-quinazolin-2-yl)-(4-piperidin-1-yl-phenyl)-amine]	–	> 5	0.41	3.1	0.052	166 to 167 °C
COc1ccc2cnc(Nc3ccccc3)nc2c1C1CCCC1 [Example 17, (8-Cyclopentyl-7-methoxy-quinazolin-2-yl)-phenyl-amine]	–	–	–	–	–	187 to 188 °C
CC(C)c1c(O)ccc2cnc(Nc3ccccc3)nc12 [Example 29, 8-Isopropyl-2-phenylamino-quinazolin-7-ol]	–	0.813	0.25	0.55	0.325	103 to 104 °C
COc1ccc2cnc(Nc3ccc(N4CCC(N)C4)cc3)nc2c1C1CCCC1 (centres unmarked) [Example 41, [4-(3-Amino-pyrrolidin-1-yl)-phenyl]-(8-cyclopentyl-7-methoxy-quinazolin-2-yl)-amine]	–	0.398	0.203	0.95	0.116	220 to 221 °C
COc1ccc2cnc(Nc3ccc(N4CCCCC4)c(F)c3)nc2c1C1CCCC1 [Example 49, (8-Cyclopentyl-7-methoxy-quinazolin-2-yl)-(3-Fluoro-4-piperidin-1-yl-phenyl)-amine]	0.085	> 5	–	8	–	200 to 201 °C
COc1ccc2cnc(Nc3ccc(N4CCNCC4)cc3)nc2c1C1CCCC1 [Example 27, (8-Cyclopentyl-7-methoxy-quinazolin-2-yl)-(4-piperazin-1-yl-phenyl)-amine]	0.001	0.132	0.028	0.25	–	–
COc1ccc2cnc(Nc3ccc(N4CCNCC4)cc3)nc2c1C(C)C [Example 34, (8-Isopropyl-7-methoxy-quinazolin-2-yl)-(4-piperazin-1-yl-phenyl)-amine]	–	0.506	0.185	1.2	0.016	–
COc1ccc2cnc(Nc3ccc(N4CCOCC4)c(F)c3)nc2c1C(C)C [Example 38, (3-Fluoro-4-morpholin-4-yl-phenyl)-(8-isopropyl-7-methoxy-quinazolin-2-yl)-amine]	–	1.23	0.451	2.75	–	202 to 203 °C
COc1ccc2cnc(Nc3ccc(N4CCN(C(=O)OC(C)(C)C)CC4)cc3)nc2c1C1CCCC1 [Example 26, 4-[4-(8-Cyclopentyl-7-methoxy-quinazolin-2-ylamino)-phenyl]-piperazine-1-carboxylic Acid Tert-butyl Ester]	0.051	4.2	0.646	–	–	183 to 184 °C
